In patent publication US12539294B2, “Combination of an azetidine LPA1 receptor antagonist with pirfenidone and/or nintedanib for use in the treatment of fibrotic diseases” (Idorsia Pharmaceuticals Ltd, priority 2020, dated 2026):
Each block holds one molecule with its values, some of them ahead of it.

Tests used:
[1] = molecular target: T1, human LPA1 receptor (Homo sapiens, UniProt Q92633); assay: Beta-arrestin recruitment assay (Tango EDG2-bla U2OS cells) to determine IC50 values for human LPAR1; format: cell-based; details: antagonist mode, LPA 18:1 500 nM final; geomean where multiple values
T1 construct: TEV protease site; Gal4-VP16 transcription factor; host or cells: Tango EDG2-bla U2OS cells
From the text: Biological Assays Beta-Arrestin Recruitment Assay to Determine IC50 values for human LPAR1
The Tango™ EDG2-bla U2OS cells are obtained from Invitrogen. These cells contain the human LPA1 receptor cDNA linked to a TEV protease site and a Gal4-VP16 transcription factor integrated into the Tango™ GPCR-bla U2OS parental cell line. This parental cell line stably expresses a beta-arrestin/TEV protease fusion protein and the beta-lactamase (bla) reporter gene under the control of a UAS response element. Upon LPA (agonist) binding, LPA1 receptor gets activated, leading to arrestin-protease recruitment and proteolytic release of the transcription factor: The transcription factor then regulates transcription of a beta-lactamase reporter construct, which is measured upon addition of the live-cell substrate.
10'000 Tango™ EDG2-bla U2OS cells are seeded in a 384-well black with clear bottom plate in 30 μl Freestyle 293 Expression Medium (Invitrogen) and incubated for 20 h at 37° C., 5% CO2. For antagonist assays, 5 μl of test compound (dilution series in DMSO/Freestyle 293 Expression medium/0.1% fatty acid free BSA (Sigma)) or buffer control are added per well and incubated for 30 min at 37° C., 5% CO2. 5 μl of LPA 18:1 (500 nM final) (solution in Freestyle 293 Expression medium/0.1% fatty acid free BSA (Sigma)) are added per well and the plate incubated for 16 h at 37° C., 5% CO2. Cells are then loaded with LiveBLAzer-FRET™ B/G Substrate (Invitrogen) for 2 h in the dark and the fluorescence emission at 460 nm and 530 nm is measured using the SynergyMx reader (BioTek). Following the background subtraction from both channels, the 460/530 nm emission ratio for each well is calculated, then plotted and fitted to a 4-parameter logistic function to obtain IC50 values. IC50 is the concentration of antagonist inhibiting 50% of the maximal response.
Where multiple values were measured, geomean values are given.

[2] = tested on: Normal Human Lung Fibroblasts (NHLF); assay: TGFβ-induced αSMA expression in human fibroblasts, combination with pirfenidone; format: cell-based
Experimental: The anti-fibrotic effect of the respective Example COMPOUND A-C or Reference COMPOUND D (BMS-986020) and pirfenidone alone or in combination can be determined in vitro in the assay of TGFβ-induced myofibroblast differentiation.
Combination Efficacy Experiment: Transforming Growth Factor Beta (TGFβ)-Induced α-Smooth Muscle Actin (αSMA) Expression in Human Fibroblasts:
Normal Human Lung Fibroblasts (NHLF) were obtained from Lonza. 10'000 cells were seeded in 24-well plates in 300 μl Fibroblast Growth Medium-2 (FGM™-2, Lonza) and incubated for 20 hours at 37° C., 5% CO2. […] Samples were resolved by SDS-PAGE on 4-12% Novex Bis-Tris precast gels (Thermo Fischer Scientific) and analyzed by western blot using αSMA (Sigma) and HRP-coupled secondary antibodies. Membranes were treated with Western Lighting Enhanced Chemiluminescence Substrate (Perkin Elmer) and the chemiluminescence signal was recorded by the reader Fusion FX6 (Viber Lourmat). Signals were quantified using densitometric analysis in Fusion software. % of inhibition of TGFβ-induced αSMA expression was calculated for each COMPOUND, pirfenidone and their combination. Additive effect was calculated by adding the values of % of inhibition by COMPOUND alone and pirfenidone alone and expressed as “expected combo inhibition”. Measured % of inhibition by COMPOUND and pirfenidone combination was expressed as “measured combo inhibition”. […]

[3] = cited from earlier work
[4] = tested on: primary human lung (myo)fibroblasts; details: cited from earlier work; for fibroblast to myofibroblast differentiation and/or pro-fibrotic activity of (myo)fibroblasts: primary human lung (myo)fibroblasts, various conditions
[5] = tested on: LPA-induced vascular leakage; assay: mouse LPA-induced skin vascular leakage model; format: in vivo; details: oral administration of 30 mg/kg to mice
Experimental: The in vivo potency of the compounds of Formula (I) can be determined using a mouse LPA-induced skin vascular leakage model. Female Balb/c mice are treated with either vehicle or test compound (p.o.) for at least 1 h prior to administration of the albumin marker Evans blue (50 mg/kg, i.v., 0.9% NaCl) and subsequent challenge with LPA (5 μg, i.d.). After 30 minutes, mice are sacrificed by CO2 inhalation. Discs of skin from the injection sites are removed, digested in formamide (500 μl, 37° C., 24 hrs) and the content of Evans blue quantified by colorimetric assay. Results are expressed as extravasated Evans blue per skin disc (μg/disc).
As an example, selected compound of the present invention, Ex 5-2, is able to effectively reduce LPA-induced vascular leakage after oral administration of 30 mg/kg to mice as compared to a group of animals treated with vehicle only. Reduction of vascular leakage compared to vehicle group was ≥60%.

[6] = tested on: NHLF; assay: TGFβ-induced αSMA expression in human fibroblasts, combination with nintedanib; format: cell-based; details: 1 μM nintedanib, TGFβ 5 ng/ml, 48 h
Experimental: Combination Efficacy Experiment: TGFβ-Induced αSMA Expression in Human Fibroblasts:
NHLF were obtained from Lonza. 10'000 cells were seeded in 24-well plates in 300 μl FGM™ and incubated for 20 hours at 37° C., 5% CO2. The medium was changed for 300 μl FBM™ supplemented with 0.1% fatty acid free BSA (Sigma) and the plate incubated for 20 hours at 37° C., 5% CO2. 100 μl of the respective COMPOUND, nintedanib or their combination (solution in FBM™/0.1% fatty acid free BSA) were added per well and incubated for 30 minutes, followed by addition of 100 μl of TGFβ (5 ng/ml final) (solution in FBM™/0.1% fatty acid free BSA) and incubation for 48 h at 37° C., 5% CO2. […] Samples were resolved by SDS-PAGE on 4-12% Novex Bis-Tris precast gels (Thermo Fischer Scientific) and analyzed by western blot using αSMA (Sigma) and HRP-coupled secondary antibodies.
Membranes were treated with Western Lighting Enhanced Chemiluminescence Substrate (Perkin Elmer) and the chemiluminescence signal was recorded by the reader Fusion FX6 (Viber Lourmat). Signals were quantified using densitometric analysis in Fusion software. % of inhibition of TGFβ-induced αSMA expression was calculated for each COMPOUND, nintedanib and their combination. Additive effect was calculated by adding the values of % of inhibition by COMPOUND alone and nintedanib alone and expressed as “expected combo inhibition”. […]

[7] = cited from earlier work; remark: listed apart in the source
[8] = cited from earlier work; remark: listed apart in the source

T1 sequence (Q92633 whole entry, the tested form may be a part): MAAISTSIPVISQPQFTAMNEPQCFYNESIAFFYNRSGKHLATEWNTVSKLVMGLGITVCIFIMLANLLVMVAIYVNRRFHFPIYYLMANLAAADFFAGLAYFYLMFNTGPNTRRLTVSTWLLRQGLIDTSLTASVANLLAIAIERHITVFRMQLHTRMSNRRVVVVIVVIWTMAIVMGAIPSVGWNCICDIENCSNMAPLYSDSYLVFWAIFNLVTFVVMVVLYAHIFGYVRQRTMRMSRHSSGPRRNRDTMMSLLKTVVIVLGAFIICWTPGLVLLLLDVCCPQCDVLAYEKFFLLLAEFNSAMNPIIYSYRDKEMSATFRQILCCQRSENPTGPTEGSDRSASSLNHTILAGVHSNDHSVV

- IC50 [1]: 14 nM
Molecule: Cc1ccc(NC(=O)C2(c3ccccc3C(C)C)CN(S(N)(=O)=O)C2)c(OC(C)C)n1 [Example 5-10, N-(2-isopropoxy-6-methylpyridin-3-yl)-3-(2-isopropylphenyl)-1-sulfamoylazetidine-3-carboxamide]

- IC50 [1]: 3 nM
Molecule: CCOc1cc(Cl)ncc1NC(=O)C1(c2ccccc2C(C)C)CN(S(N)(=O)=O)C1 [Example 5-3, N-(6-chloro-4-ethoxypyridin-3-yl)-3-(2-isopropylphenyl)-1-sulfamoylazetidine-3-carboxamide]

- IC50 [1]: 19 nM
Molecule: COc1cc(F)ncc1NC(=O)C1(c2ccccc2C(C)C)CN(S(N)(=O)=O)C1 [Example 5-1, N-(6-fluoro-4-methoxypyridin-3-yl)-3-(2-isopropylphenyl)-1-sulfamoylazetidine-3-carboxamide]

- IC50 [1]: 2 nM
Molecule: Cc1ccc(NC(=O)C2(c3ccccc3C(C)C)CN(S(N)(=O)=O)C2)c(OC(F)F)n1 [Example 5-7, N-(2-(difluoromethoxy)-6-methylpyridin-3-yl)-3-(2-isopropylphenyl)-1-sulfamoylazetidine-3-carboxamide]

- IC50 [1]: 51 nM
Molecule: COc1nc(C)ccc1NC(=O)C1(c2ccccc2C(C)C)CN(S(N)(=O)=O)C1 [Example 5-8, 3-(2-isopropylphenyl)-N-(2-methoxy-6-methylpyridin-3-yl)-1-sulfamoylazetidine-3-carboxamide]

Further lines, the molecule ahead of its results:

Molecule: 4-(3-((6-chloro-4-ethoxypyridin-3-yl)carbamoyl)-3-(2-isopropylphenyl)azetidin-1-yl)-2,2-dimethyl-4-oxobutanoic acid [Example 4-5]
- IC50 [1]: 12 nM

Molecule: COc1cc(Cl)ncc1NC(=O)C1(c2ccccc2C(C)C)CN(C(=O)CC(C)(C)C(=O)O)C1 [Example 4-2, 4-(3-((6-chloro-4-methoxypyridin-3-yl)carbamoyl)-3-(2-isopropylphenyl)azetidin-1-yl)-2,2-dimethyl-4-oxobutanoic acid]
- IC50 [1]: 79 nM

Molecule: CCOc1cc(Cl)ncc1NC(=O)C1(c2ccccc2C(C)C)CN(CCC(C)(C)C(=O)O)C1 [Example 2-4, 4-(3-((6-chloro-4-ethoxypyridin-3-yl)carbamoyl)-3-(2-isopropylphenyl)azetidin-1-yl)-2,2-dimethylbutanoic acid]
- IC50 [1]: 20 nM

Molecule: Cc1ccc(=O)n(-c2ccccc2)c1 [pirfenidone, 5-methyl-1-phenyl-2-(1H)-pyridone]
- inhibition of TGFβ-induced αSMA expression, pirfenidone alone ([2]; 2 mM pirfenidone, TGFβ 5 ng/ml, 48 h): minimally inhibited
- pirfenidone potency (IC50) on TGFβ-induced αSMA expression when combined with COMPOUND A ([2]; presence of 10 nM, 100 nM and 1000 nM COMPOUND A versus absence (FIG. 5)): gains in potency
- patients requiring dosage reduction or interruption for gastrointestinal events ([3]; 2403 mg/day group): 18.5%
- patients who discontinued treatment due to a gastrointestinal event ([3]; 2403 mg/day group): 2.2%
- patients with elevations ≥10×ULN in ALT or AST ([3]; 2403 mg/day group): 0.3%
- incidence of elevations in ALT or AST ≥3× upper limit of normal (ULN) ([3]; 2403 mg/day, three Phase 3 trials): 3.7%
- drug-induced liver injury (DILI) ([3]; clinical and postmarketing): Cases of drug-induced liver injury (DILI) have been observed
- concentrations used to observe significant effects in vitro ([4]; in vitro): > 0.5 mM
- fibroblast to myofibroblast differentiation and/or pro-fibrotic activity of (myo)fibroblasts [4]: attenuated, but usually did not fully inhibit

Molecule: COc1cc(Cl)ncc1NC(=O)C1(c2ccccc2C(C)C)CN(S(N)(=O)=O)C1 [Example 5-2, N-(6-chloro-4-methoxypyridin-3-yl)-3-(2-isopropylphenyl)-1-sulfamoylazetidine-3-carboxamide]
- Reduction of vascular leakage compared to vehicle group [5]: ≥ 60%

Molecule: CCS(=O)(=O)O.COC(=O)c1ccc2c(c1)NC(=O)/C2=C(\Nc1ccc(N(C)C(=O)CN2CCN(C)CC2)cc1)c1ccccc1 [nintedanib, (3Z)-2,3-dihydro-3-[[[4-[methyl-[(4-methyl-1-piperazinyl)-acetyl]-amino]-phenyl]-amino]-phenylmethylene]-2-oxo-1H-indole-6-carboxylic acid methyl ester ethanesulfonate]
- inhibition of TGFβ-induced αSMA expression, nintedanib alone [6]: minimally inhibited
- elevated liver enzymes and drug-induced liver injury ([7]; clinical and postmarketing): ALT, AST, and bilirubin elevations have occurred
- reduction of the decline in lung function ([7]; two phase III trials, over one year): approximately 50%
- fibroblast to myofibroblast differentiation and/or pro-fibrotic activity of (myo)fibroblasts [4]: attenuated, but usually did not fully inhibit

Molecule: Cc1ccc(NC(=O)C2(c3ccccc3C(C)C)CN(CCCC(C)(C)C(=O)O)C2)c(OC(F)F)n1 [Example 3-1, 5-(3-((2-(difluoromethoxy)-6-methylpyridin-3-yl)carbamoyl)-3-(2-isopropylphenyl)azetidin-1-yl)-2,2-dimethylpentanoic acid]
- IC50 [1]: 13 nM

Molecule: Cc1noc(-c2ccc(-c3ccc(C4(C(=O)O)CC4)cc3)cc2)c1NC(=O)O[C@H](C)c1ccccc1 [BMS-986020]
- rate of decline in forced vital capacity (FVC) versus placebo ([8]; IPF patients, b.i.d.): significantly slower rate of decline
- hepatic enzymes ([8]; both BMS-986020 treatment groups): Dose-related elevations
- cases of cholecystitis determined to be related to treatment ([8]; study terminated early): three cases of cholecystitis
